Experimental data taken from patent US20130274100A1, “Synergistic Fungicidal Active Substance Combinations” (priority 2005, published 2013).

Legend:
[1] = system: Erysiphe graminis f.sp. tritici; experiment: Erysiphe test (wheat)/protective; assay type: in vivo; conditions: protective spray, application rate 62.5 g/ha, evaluation 7 days after inoculation
Source text: The expected fungicidal action for a given combination of two active compounds can be calculated as follows, according to S. R. Colby (“Calculating Synergistic and Antagonistic Responses of Herbicide Combinations”, Weeds 1967, 15, 20-22): • X is the efficacy when employing active compound A at an application rate of m g/ha, • Y is the efficacy when employing active compound B at an application rate of n g/ha and • E is the efficacy when employing active compounds A and B at application rates of m and n g/ha, then Here, the efficacy is determined in %. 0% means an efficacy which corresponds to that of the control, whereas an efficacy of 100% means that no infection is observed. If the actual fungicidal action exceeds the calculated value, the action of the combination is superadditive, i.e. a synergistic effect is present. In this case, the actually observed efficacy must exceed the value calculated using the above formula for the expected efficacy (E). Erysiphe Test (Wheat)/Protective Solvent: 50 parts by weight of N,N-dimethylacetamide Emulsifier: 1 part by weight of alkylarylpolyglycol ether To produce a suitable preparation of active compound, 1 part by weight of active compound is mixed with the stated amounts of solvent and emulsifier or a commercial active compound formulation, and the concentrate is diluted with water to the desired concentration. To test for protective activity, young plants are sprayed with the preparation of active compound at the stated application rate. After the spray coating has dried on, the plants are dusted with spores of Erysiphe graminis f.sp. tritici. The plants are placed in a greenhouse at a temperature of about 20° C. and a relative atmospheric humidity of about 80% to promote the development of mildew pustules. Evaluation is carried out 7 days after the inoculation. 0% means an efficacy which corresponds to that of the control, whereas an efficacy of 100% means that no infection is observed.

Puccinia recondita = experiment: Puccinia test (wheat)/protective; assay type: in vivo; conditions: protective spray, evaluation 10 days after inoculation
Source text: The expected fungicidal action for a given combination of two active compounds can be calculated as follows, according to S. R. Colby (“Calculating Synergistic and Antagonistic Responses of Herbicide Combinations”, Weeds 1967, 15, 20-22): • X is the efficacy when employing active compound A at an application rate of m g/ha, • Y is the efficacy when employing active compound B at an application rate of n g/ha and • E is the efficacy when employing active compounds A and B at application rates of m and n g/ha, then Here, the efficacy is determined in %. 0% means an efficacy which corresponds to that of the control, whereas an efficacy of 100% means that no infection is observed. If the actual fungicidal action exceeds the calculated value, the action of the combination is superadditive, i.e. a synergistic effect is present. In this case, the actually observed efficacy must exceed the value calculated using the above formula for the expected efficacy (E). Puccinia Test (Wheat)/Protective Solvent: 50 parts by weight of N,N-dimethylacetamide Emulsifier: 1 part by weight of alkylaryl polyglycol ether To produce a suitable preparation of active compound, 1 part by weight of active compound is mixed with the stated amounts of solvent and emulsifier or a commercial active compound formulation, and the concentrate is diluted with water to the desired concentration. To test for protective activity, young plants are sprayed with the preparation of active compound at the stated application rate. After the spray coating has dried on, the plants are sprayed with a conidia suspension of Puccinia recondita. The plants remain in an incubation cabin at 20° C. and 100% relative atmospheric humidity for 48 hours. The plants are then placed in a greenhouse at a temperature of about 20° C. and a relative atmospheric humidity of 80% to promote the development of rust postules. Evaluation is carried out 10 days after the inoculation. 0% means inefficacy which corresponds to that of the control, whereas an efficacy of 100% means that no infection is observed.

Row | Compound | Efficacy in % found [1] | Efficacy in % found (Puccinia recondita; application rate 125 g/ha) | Efficacy in % found (Puccinia recondita; application rate 250 g/ha)
1 | CC(C)CC(C)c1sccc1NC(=O)c1cn(C)nc1C(F)(F)F (stereo not shown) [(1-1), N-[2-(1,3-dimethylbutyl)-3-thienyl]-1-methyl-3-(trifluoromethyl)-1H-pyrazole-4-carboxamide] | 0% | 33% | 67%
2 | CO/C=C(/C(=O)OC)c1ccccc1COc1cccc(C(F)(F)F)n1 [(2-9), Picoxystrobin] | 71% | – | 94%
3 | CCCC1COC(Cn2cncn2)(c2ccc(Cl)cc2Cl)O1 (stereo not shown) [(3-3), Propiconazole] | 29% | 56% | –
4 | CC(C1CC1)C(O)(Cn1cncn1)c1ccc(Cl)cc1 (stereo not shown) [(3-6), Cyproconazole] | 57% | 94% | –
5 | CCCCC(O)(Cn1cncn1)c1ccc(Cl)cc1Cl (stereo not shown) [(3-7), Hexaconazole] | 29% | 78% | –
6 | Cc1cc(C2CC2)nc(Nc2ccccc2)n1 [(9-1), Cyprodinil] | 0% | 0% | –
